Data on three molecules can be found in patent US20260258003A1, “SLACK-ACTIVATING COMPOUNDS AND THEIR MEDICAL USE” (Johann Wolfgang Goethe-Universität Frankfurt am Main, priority 2023, published 2026).

Each structure is given as a SMILES string. Where two headings read alike, the source gives them in different places. Bounds are passed on as bounds.

Data set [1] addresses T1, serotonin 5-HT2B receptor (Homo sapiens, UniProt P41595).
T1 construct: Eurofins SafetyScreen44
Description: SafetyScreen44 binding. The conditions noted are these: substantial = higher than 50%; for binding inhibition, 5-HT2B: 10 μM. The protocol: (§1) Compound enzyme inhibition effect was calculated as a % inhibition of control enzyme activity. […] Measurements were performed in duplicate.

Data set [2] has as its target T2, serotonin 5-HT2A receptor (Homo sapiens, UniProt P28223).
T2 construct: Eurofins SafetyScreen44
Description: SafetyScreen44 binding. The conditions noted are these: substantial = higher than 50%; for binding inhibition, 5-HT2A: 10 μM. The procedure:
as §1

Data set [3] concerns the target T3, human ether-à-go-go (hERG) potassium channel (Homo sapiens, UniProt Q12809).
T3 construct: Eurofins SafetyScreen44
Description: SafetyScreen44 binding. The conditions noted are these: 10 μM. The procedure:
as §1

Data set [4] can be described thus: BBB-specific parallel artificial membrane permeability assay (PAMPA-BBB). The conditions noted are these: pH 7.4, 37° C.; for MR (membrane retention factor): 4 h. The class given is in vitro ADME, porcine. The protocol:
BBB permeability was estimated using a BBB-specific parallel artificial membrane permeability assay (PAMPA-BBB). […] Five v/v % DMSO in PBS (Phosphate Buffer Saline; 0.01 M, pH=7.4) buffer solutions of each compound were prepared with the final nominal concentration of 100 μM. These solutions were treated with ultrasonic waves and then centrifuged in case the test compounds were insoluble at this concentration. Proceeding with saturated, homogenous solutions (CD(0)) is sufficient because log Pe only depends on relative concentrations. A BBB specific PAMPA system was used to determine the log Pe and membrane retention (MR). Each well of the top plate (MultiScreen […]10; Millipore; Billerica, US) was carefully coated with 5 μL of porcine polar brain lipid extract (PBLE; Avanti Polar Lipids, Birmingham, US) solution, then 150 μL of the CD(0) solution was put on the membrane. The bottom plate (MultiScreen MDCPN2M50; Millipore, Billerica, US) was filled with […] PBS. PBLE solution consisted of 1 mg PBLE per 10 μL n-dodecane and 30 μL n-hexane. The donor plate was put on the acceptor plate and covered with a wet paper tissue and a plate lid. The sandwich system was incubated at 37° C. for 4 h. The plates were shaken and incubated in a Thermo ScientificTM MaxQTM 4000 Benchtop Orbital Shaker (Gel, Belgium). After the incubation, PAMPA sandwich plates were separated and compound concentrations in donor (CD(t)) and acceptor (CA(t)) solutions were determined by UPLC-MS (Waters, Milford, US). The concentration of the donor solution at zero time point (CD(0)) was determined using the supernatant after centrifugation.

Data set [5] deals with voltage-gated (KV) potassium channel. In words: SafetyScreen44 binding. The arrangement: species or system rat. The conditions noted are these: 10 μM. The procedure:
as §1

Data set [6] deals with chloroquine-induced scratching behavior of mice. Description: Chloroquine-induced acute itch (scratching) model, systemic treatment. The class given is in vivo. The conditions noted are these: for chloroquine-induced scratching behavior: WT mice, 3, 10 or 30 mg/kg i.p. 15 min prior to s.c. chloroquine. The procedure:
Further studies were conducted to assess the in vivo efficacy of Compound 6 and Compound 10 in mice. In detail, experiments were performed in 8 to 16 weeks old C57BL/6N mice (Charles River, Sulzfeld, Germany) and animals with a genetic deletion of Slack (Slack^−/− mice^27) of either sex. Animals were housed on a 12 h light/dark cycle with access to food and water ad libitum. All experiments adhered to the guidelines of the International Association for the Study of Pain and to the ARRIVE (Animal Research: Reporting on In Vivo Experiments) guidelines, and were approved by and conducted in accordance with the regulations of the local Animal Welfare authorities (Regierungspräsidium Darmstadt, Germany). All behavioral studies were conducted during the light cycle of the day at room temperature (20-24° C.) by an observer blinded for the treatment of the animals and/or their genotype.
Acute itch behavior of the mice was monitored using a histamine-based, chloroquine-based and SLIGRL-based acute itch behavior model. In these models, three to four days before the experiment day, the fur on the dorsolateral aspect of the neck was shaved under brief isoflurane anesthesia. On the testing day, mice were habituated for 30 min in separate plexiglass cylinders (30 cm diameter). Compounds were dissolved in 0.9% saline containing 10% 2-hydroxypropyl-β-cyclodextrine and i.p. administered in a volume of maximal 200 μL. 15 min thereafter, the pruritogens chloroquine (200 μg), SLIGRL (100 μg) or histamine (800 μg), all dissolved in 0.9% saline (20 μL), were injected subcutaneously into the nape of the neck. Numbers of scratching bouts directed to the nape of the neck were assessed over 30 min by videotaping.

A short description of data set [7]: In vivo pharmacokinetic study, plasma and brain levels by LC-MS. The arrangement: species or system mice. The protocol:
The compounds pharmacokinetic properties were examined in vivo by administering the compounds intraperitoneally (i.p.) at 1 mg/kg in mice, and determining plasma and brain levels over 8 h by LC-MS measurements.
The pharmacokinetic study was performed by Pharmacelsus (Saarbrücken, Germany). In total 27 male C57BL/6 mice (8 weeks old, 23-31 g body weight, purchased from Janvier Labs, France) were used. The animals were housed in a temperature-controlled room (20-24° C.) and maintained in a 12 h light/dark cycle. Food and water were available ad libitum. All experimental procedures were approved by and conducted in accordance with the regulations of the local Animal Welfare authorities (Landesamt für Gesundheit und Verbraucherschutz, Abteilung Lebensmittel-und Veterinärwesen, Saarbrücken).
The animals were divided into 3 groups (9 mice/group) and a cassette dosing was performed, in which the mice received a single dose of 1 mg/kg body weight of 3-4 compounds (dissolved in 0.9% NaCl containing 20% cyclodextrine) i.p. simultaneously. From each animal 2 blood samples were collected from the retrobulbar venous plexus under short isoflurane anesthesia (at 0.25 h and 0.5 h from 3 mice; at 1 h and 2 h from 3 mice; and at 4 h and 8 h from 3 mice). Li-heparin was used as anticoagulant. Plasma samples were obtained by centrifugation for 10 min at 3000× g and 4° C. Immediately after the last blood sample the animal was sacrificed by cervical dislocation and the brain was removed and frozen in liquid nitrogen. Plasma and brain samples were stored at −80° C. until LC-MS analysis.
For all other compounds, the HPLC system consisted of a U-HPLC pump (Accela) and an AS Open auto sampler (Thermo Fisher Scientific, USA), and mass spectrometry was performed on a Q Exactive (Orbitrap) accurate mass spectrometer equipped with a heated electrospray (H-ESI) interface (Thermo Fisher Scientific, USA) connected to a PC running the standard software Chromeleon 7.2. For all compounds, the HPLC pump flow rate was set to 600 μl/min and the compounds were separated on an analytical column with a suitable pre-column. The pharmacokinetic analysis was performed applying a non-compartment model using the Kinetica 5.0 software (Thermo Scientific, Waltham, USA). All given parameters were obtained by trapezoid area calculation.

[8] abbreviates: male, C57BL/6, mouse, in vivo, ip, 1 mg/kg.
Where [9] appears, read: systemic administration of a low dose, preliminary experiments, data not shown.
Where [10] appears, read: mice, 1 mg/kg i.p., cassette dosing, plasma.

T1 sequence (P41595 whole entry): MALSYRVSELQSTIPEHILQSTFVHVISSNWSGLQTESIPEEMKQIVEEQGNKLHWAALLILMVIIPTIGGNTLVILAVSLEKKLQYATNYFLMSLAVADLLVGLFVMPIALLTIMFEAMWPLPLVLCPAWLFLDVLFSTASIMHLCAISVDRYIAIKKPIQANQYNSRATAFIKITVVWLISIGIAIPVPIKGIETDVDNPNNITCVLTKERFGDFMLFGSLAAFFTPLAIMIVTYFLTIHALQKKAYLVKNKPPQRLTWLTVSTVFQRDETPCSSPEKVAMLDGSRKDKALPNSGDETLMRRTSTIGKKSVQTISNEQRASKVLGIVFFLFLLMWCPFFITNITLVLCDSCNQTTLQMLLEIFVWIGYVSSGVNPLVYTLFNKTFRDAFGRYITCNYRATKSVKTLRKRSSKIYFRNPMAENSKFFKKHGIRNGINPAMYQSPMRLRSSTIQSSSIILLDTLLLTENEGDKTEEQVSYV
T2 sequence (P28223 whole entry): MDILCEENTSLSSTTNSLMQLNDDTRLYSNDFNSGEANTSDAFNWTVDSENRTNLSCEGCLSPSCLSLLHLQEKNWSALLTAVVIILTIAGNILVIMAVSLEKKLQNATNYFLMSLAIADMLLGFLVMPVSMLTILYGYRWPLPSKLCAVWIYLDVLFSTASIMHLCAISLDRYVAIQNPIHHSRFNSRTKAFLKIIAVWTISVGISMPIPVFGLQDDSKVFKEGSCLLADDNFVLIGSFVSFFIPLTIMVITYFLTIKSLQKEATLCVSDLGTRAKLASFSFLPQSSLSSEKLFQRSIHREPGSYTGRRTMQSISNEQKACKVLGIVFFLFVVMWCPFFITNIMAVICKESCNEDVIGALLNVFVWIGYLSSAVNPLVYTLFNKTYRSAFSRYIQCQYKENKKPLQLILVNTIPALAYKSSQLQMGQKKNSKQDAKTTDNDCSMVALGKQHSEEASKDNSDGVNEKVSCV
T3 sequence (Q12809 whole entry): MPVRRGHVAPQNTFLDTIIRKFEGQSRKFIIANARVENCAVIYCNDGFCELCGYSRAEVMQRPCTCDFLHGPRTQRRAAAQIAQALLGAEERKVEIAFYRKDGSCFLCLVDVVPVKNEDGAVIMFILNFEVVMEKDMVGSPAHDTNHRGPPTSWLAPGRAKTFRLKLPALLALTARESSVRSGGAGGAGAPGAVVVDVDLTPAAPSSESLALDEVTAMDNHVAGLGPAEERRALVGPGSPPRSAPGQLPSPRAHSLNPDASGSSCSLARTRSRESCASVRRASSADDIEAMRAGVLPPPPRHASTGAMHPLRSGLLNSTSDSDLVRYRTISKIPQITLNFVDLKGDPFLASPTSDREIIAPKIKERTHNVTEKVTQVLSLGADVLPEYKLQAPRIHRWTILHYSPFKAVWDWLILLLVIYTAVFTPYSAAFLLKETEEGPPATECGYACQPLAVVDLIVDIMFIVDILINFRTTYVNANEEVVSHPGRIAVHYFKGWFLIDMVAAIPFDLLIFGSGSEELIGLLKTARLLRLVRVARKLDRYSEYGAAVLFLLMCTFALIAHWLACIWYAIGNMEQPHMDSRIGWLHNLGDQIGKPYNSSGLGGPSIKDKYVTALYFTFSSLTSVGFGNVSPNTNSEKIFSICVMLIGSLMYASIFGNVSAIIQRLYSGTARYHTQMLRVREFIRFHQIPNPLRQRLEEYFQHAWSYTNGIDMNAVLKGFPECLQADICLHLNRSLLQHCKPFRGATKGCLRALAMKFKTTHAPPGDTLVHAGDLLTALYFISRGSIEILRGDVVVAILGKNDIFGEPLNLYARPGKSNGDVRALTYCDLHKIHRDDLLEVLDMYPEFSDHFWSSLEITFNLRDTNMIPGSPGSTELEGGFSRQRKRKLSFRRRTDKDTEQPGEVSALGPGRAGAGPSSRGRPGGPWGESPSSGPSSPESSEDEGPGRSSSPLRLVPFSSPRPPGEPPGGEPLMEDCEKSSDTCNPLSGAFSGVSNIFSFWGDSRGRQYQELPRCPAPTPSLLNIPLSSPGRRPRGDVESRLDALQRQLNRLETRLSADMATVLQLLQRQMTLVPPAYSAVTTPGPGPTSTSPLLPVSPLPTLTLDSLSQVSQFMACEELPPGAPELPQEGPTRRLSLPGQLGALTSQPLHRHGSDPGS

On to `O=C(O)COCCN1CCN(C2=Nc3ccccc3Oc3ccc(Cl)cc32)CC1` [Compound 6, 2-(2-(4-(2-Chlorodibenzo[b,f][1,4]oxazepin-11-yl)piperazin-1-yl)ethoxy) acetic acid], for which the “binding inhibition, 5-HT2B” value in data set [1] was “substantial binding”. In addition, the “binding inhibition, 5-HT2A” value in data set [2] was “substantial binding”. The “binding to hERG potassium channel in the off-target screen” value (shortened to “binding to hERG potassium channel”) in data set [3] was “did not measurably bind”. Moreover, the Papp at 4 h, 100 μM in data set [4] (pig, Pe in cm/s, read-out: BBB permeability log Pe (converted)) was 24.5 ×10⁻⁶ cm/s. For the same molecule, the “binding to voltage-gated (KV) potassium channel in the off-target screen” value (“binding to voltage-gated” for short) in data set [5] was “did not measurably bind”. Further, in data set [6] (Slack−/− mice, 10 mg/kg), the “chloroquine-induced scratching in Slack−/− mice” value is recorded as “did not significantly alter”. Moreover, in data set [6], the chloroquine-induced scratching behavior entry is “ameliorate the scratching behavior in a dose-dependent manner”. For the same molecule, the “antipruritic effect after pretreatment with Slack inhibitor Compound 31” value in data set [6] (WT mice, Compound 31 30 mg/kg i.p. 5 min prior to Compound 6 30 mg/kg i.p.) is reported as “partly antagonized”. Moreover, in data set [7] (setting [8]), the “% AUCextra” value is 10.1%; the AUC(0-inf) (in general, the area under the concentration-time curve extrapolated to infinity) came to 467 ng·h/mL; the AUC(0-t) worked out at 420 ng·h/mL; the CL/F is 35.7 mL/min/kg. In addition, in data set [7] (setting [8]), the peak level (Cmax) was 240 ng/mL, the Cz amounted to 13.3 ng/mL, the Tmax (commonly the time from dosing to the highest level) worked out at 0.25 h and the Vd/F was 7.56 L/kg. Also, in data set [7] (setting [8]), the half-life is 2.4 h and the tz amounted to 8 h. In addition, the Kp in data set [7] (male, C57BL/6, mouse, in vivo, ip, mice, 1 mg/kg i.p., read-out: brain/plasma ratio) was at most 0.3.
For `O=c1nc(CN2CCN(C3=Nc4ccccc4Oc4ccc(Cl)cc43)CC2)[nH][nH]1` [Compound 10, 5-((4-(2-Chlorodibenzo[b,f][1,4]oxazepin-11-yl)piperazin-1-yl)methyl)-1,2-dihydro-3H-1,2,4-triazol-3-one], the “binding inhibition, 5-HT2B” value in data set [1] is “substantial binding inhibition”. Also, the “binding inhibition, 5-HT2A” value in data set [2] was “substantial binding inhibition”. Besides, the “binding to hERG potassium channel” value in data set [3] is reported as “did not measurably bind”. In data set [4], the “MR (membrane retention factor)” value is 0.02. Also, the “binding to voltage-gated” value in data set [5] is recorded as “did not measurably bind”. In addition, the chloroquine-induced scratching behavior entry in data set [6] is “ameliorate the scratching behavior in a dose-dependent manner”. The Kp in data set [7] (setting [8]) was at most 0.3.
As to `CN1CCN(C2=Nc3ccccc3Oc3ccc(Cl)cc32)CC1` [Loxapine, 2-chloro-11-(4-methylpiperazin-1-yl)dibenzo[b,f][1,4]oxazepine, reference compound], the inhibition (in general, how much of the control response was suppressed) at 10 µM in data set [1] is above 50%. In addition, the inhibition at 10 µM in data set [2] is above 50%. For the same molecule, the “binding to hERG potassium channel” value in data set [3] was “did not measurably bind”. Also, in data set [4], the “MR (membrane retention factor)” value is 0.33. In data set [5], the “binding to voltage-gated” value is reported as “did not measurably bind”. In addition, in data set [6] (setting [9]), the “chloroquine-induced scratching behavior of wildtype mice” value is on record as “significantly alleviated” and the “scratching behavior in Slack knockout mice” value was “did not affect”. In addition, in data set [7] (male, C57BL/6, mouse, ip, mice, 1 mg/kg i.p., cassette dosing, plasma, read-out: AUC (0-inf)), the AUC(0-inf) is 116 ng·h/mL. Further, in data set [7] (male, C57BL/6, mouse, ip, mice, 1 mg/kg i.p., cassette dosing, plasma, read-out: AUC(0-tz)), the AUC(0-t) is 105 ng·h/mL. For the same molecule, the CL/F in data set [7] (male, C57BL/6, mouse, ip, mice, 1 mg/kg i.p., cassette dosing, plasma, read-out: CL/f (converted)) was 144 mL/min/kg. In addition, in data set [7] (male, C57BL/6, mouse, ip, mice, 1 mg/kg i.p., cassette dosing, plasma, read-out: Cmax), the Cmax (commonly the peak of the concentration-time curve) turned out to be 41.6 ng/mL. In addition, the Vd/F in data set [7] (male, C57BL/6, mouse, ip, mice, 1 mg/kg i.p., cassette dosing, plasma, read-out: Vz/f) came out at 28.8 L/kg. Further, the half-life in data set [7] (male, C57BL/6, mouse, ip, mice, 1 mg/kg i.p., cassette dosing, plasma, read-out: t1/2z (terminal elimination half-life) (converted)) was 2.3 h. In addition, in data set [7] (male, C57BL/6, mouse, ip, mice, 1 mg/kg i.p., cassette dosing, plasma, read-out: tmax), the Tmax amounted to 0.25 h. Also, in data set [7] (setting [10]), the “% AUCextra” value is given as 9.2%, the Cz came out at 3.2 ng/mL and the tz is 8 h.
